# Reference: paper PMC2565697, “HLA Class I-T Cell Epitopes from trans-Sialidase Proteins Reveal Functionally Distinct Subsets of CD8^+ T Cells in Chronic Chagas Disease” (PLoS Neglected Tropical Diseases, 2008)
# Ends that are not written are not given here.
# Target: HLA-A2.1 molecule (Homo sapiens, UniProt P04439, D140Y/D185E/D98H/E176V/E277Q/G131W/G231S/I119V/I121R/I166T/I218V/L300P/L318F/N151K/N90K/P208A/P217A/Q86G/Q94H/R138H/R169H/T345S)
# Assay: HLA-A class I binding assay (competitive inhibition of radiolabeled probe peptide)
# Details: competitive inhibition of binding of radiolabeled standard probe peptide to purified detergent-solubilized HLA-A2.1
row,Sequence,IC50
1,RVSRPTTVV [Ts 58],2490 nM
2,SLSHYFTLVF [Ts 26],1.6 nM
3,FANYNFTLV [Ts 48],0.47 nM
4,FANYKFTLV [Ts 44],49 nM
5,GLLPSLLLLL [Ts 3],3.1 nM
6,IANYNFTLV [Ts 56],29600 nM
7,ELLRPTTLV [Ts 52],2410 nM
8,FANHDFTLV [Ts 34],101 nM
9,LLGLWGTAAL [Ts 13],499 nM
10,FVNHRFTLV [Ts 37],304 nM
11,RLLPSLLLLL [Ts 4],0.8 nM
12,FANNKFTLV [Ts 43],116 nM
13,FTNNKFTLS [Ts 68],> 50000 nM
14,FANHKFTLV [Ts 38],148 nM
15,FANYNFTLL [Ts 51],1500 nM
16,FVNYNFTLV [Ts 45],0.25 nM
17,LLGLWGLATA [Ts 6],24 nM
18,FLSHDFTLV [Ts 24],0.46 nM
19,FVSCDFTIV [Ts 35],30 nM
20,FVDYNFSLV [Ts 47],1.1 nM
21,LLGLWVFAAL [Ts 2],36 nM
22,FLSHNFTLVF [Ts 27],0.61 nM

# Test system: PBMC from HLA-A2.1+ patients with chronic Chagas disease
# Assay: IFN-γ ELISPOT with individual HLA-A0201-binding ts peptides in HLA-A2.1+ subjects
# Format: cell-based, human
# Details: HLA-A2.1+ patients group G0, peptide 10 µg/ml, 4×10^5 PBMC/well, 16–20 hr, positive: >=25 SFCs/10^6 PBMC and at least twice media alone
row,Sequence,"No. of positive responders/total no. of subjects assayed (%), G0"
1,FTNNKFTLS [Ts 68],0/6

# Same assay, conditions: HLA-A2.1+ patients group G1, peptide 10 µg/ml, 16–20 hr
row,Sequence,"No. of positive responders/total no. of subjects assayed (%), G1"
1,FTNNKFTLS [Ts 68],0/5

# Same assay, conditions: HLA-A2.1+ patients group G2/G3, peptide 10 µg/ml, 16–20 hr
row,Sequence,"No. of positive responders/total no. of subjects assayed (%), G2/G3"
1,FTNNKFTLS [Ts 68],0/8

# Test system: PBMC from chronic Chagas disease subjects
# Assay: IFN-γ ELISPOT with supertype peptide pools, single peptides or lysate in non-HLA-typed G0 subjects
# Format: cell-based, human
# Details: single peptides 10 µg/ml, representative results from single individuals, media alone subtracted (media alone 13±10)
# Procedure: The number of peptide-specific IFN-γ and IL-2-secreting T cells was determined by ex vivo ELISPOT using commercial kits (Becton & Dickinson, San Diego, CA). Cryopreserved PBMC from chronic chagasic subjects were seeded in triplicate wells at a concentration of 4×10^5/well, and stimulated with individual peptides (10 µg/ml), peptide pools (7–13 peptides per pool, 5 µg/ml/peptide) comprising HLA A01 (2 pools), A02 (2 pools), A03 (2 pools), A24 (2 pools), B07 (1 pool) or B44 (1 pool)-binding peptides or T. cruzi lysate (10 µg/ml) for 16–20 hr at 37°C and 5% CO2. For controls, cells were incubated with complete RPMI, A2-restricted HIV Pol (amino acids 510–518: […]), A2-restricted flu matrix 1 (amino acids 58–66: […]) or 50 ng/ml […] and 500 nM ionomicin (Sigma). Spot forming cells (SFCs) were automatically enumerated using ImmunoSpot analyzer (CTL).
# The mean number of SFCs in triplicate wells was obtained for each condition, and the number of specific IFN-γ and IL-2-secreting T cells (net SFCs), was calculated by subtracting the value of the wells containing media alone from the peptide/mitogen-stimulated spot count. Responses were considered significant if a minimum of 25 SFCs/1×10^6 PBMC were present per well, and additionally, this number was at least twice the value of wells with media alone.
# The number of annotated T. cruzi genes containing supertype-binding epitopes was then used to prioritize peptides to be assessed for recognition by CD8^+ T cells from a group of non-HLA-typed chagasic subjects (Table 2). IFN-γ ELISPOT responses to peptide pools containing a total of ninety-six epitopes representing HLA A01 (18 epitopes), HLA A02 (20 epitopes), HLA A03 (20 epitopes), HLA A24 (14 epitopes), HLA B07 (11 epitopes) and HLA-B44 (13 epitopes) supertypes were evaluated in 25 chronic Chagas disease subjects without clinical and radiological evidence of heart disease (G0 status) regardless of their HLA type. […] Four subjects had positive responses to more than one supertype (3 of these subjects recognized both HLA-A02 and HLA-A03-binding peptides, Fig. 1). It is noteworthy that responses to HLA-A02 and HLA03 supertype-restricted epitopes covered 77% of the total responses detected, consistent with the high worldwide frequency of these alleles.
row,Sequence,No. Net IFN-γ SFCs/10^6 PBMC
1,FTLVATVSI,70 SFCs/10^6 PBMC
2,AVAEAQCKK,18 SFCs/10^6 PBMC
3,LLLLVVMMCC,18 SFCs/10^6 PBMC
4,FQGAWAEWPV,32 SFCs/10^6 PBMC
5,LWLTDNTHI,463 SFCs/10^6 PBMC
6,VALMLQGNK,18 SFCs/10^6 PBMC
7,NVMLVTLPV,18 SFCs/10^6 PBMC
8,HNFTLVASV,15 SFCs/10^6 PBMC
9,MLSRVAAVK,38 SFCs/10^6 PBMC
10,FTSAVLLLL,25 SFCs/10^6 PBMC
11,LLLGLWGFA,30 SFCs/10^6 PBMC
12,LVTLPVYSK,15 SFCs/10^6 PBMC
13,FVSPSLVSA,18 SFCs/10^6 PBMC
14,ITATIEGRK,50 SFCs/10^6 PBMC
15,FLYNRPLNS,18 SFCs/10^6 PBMC
16,TSAVLLLLVV,18 SFCs/10^6 PBMC
17,MLVTLPVYS,15 SFCs/10^6 PBMC
18,HLFYSAVLL,40 SFCs/10^6 PBMC
19,IYMLVGKYS,65 SFCs/10^6 PBMC
20,VTDNNRSFY,30 SFCs/10^6 PBMC
21,RVLLLLLLGL,20 SFCs/10^6 PBMC
22,FTLVASVTI,35 SFCs/10^6 PBMC
